Data reported in patent US20040053219A1, “Method for analysing human immunodeficiency virus (HIV) phenotypic characteristics” (priority 2000, published 2004).
Read-outs that look alike come from different tables or passages of the source.

Legend:
[1] = system: highly resistant virus NL-DIM; assay: Susceptibility of recombinant HIV viruses to fusion inhibitors: NL-DIM; format: cell-based, HIV-1
Excerpt: (§1) The invention also relates to an analytical method to determine the susceptibility of an HIV virus to a fusion inhibiting compound targeting HIV-1 gp41 protein, consisting of performing the amplification in step b either with the pair of primers SEQ ID NO: 13, SEQ ID No: 14 followed by a second amplification with the pair of primers SEQ ID No: 15, SEQ ID No: 16, or with the pair of primers SEQ ID No: 17, SEQ ID No: 18 followed by a second amplification with the pair of primers SEQ ID No: 18, SEQ ID No: 16, adding said fusion inhibiting compound or not, possibly at different concentrations, during the culture of the cell host obtained in step e, before step f and comprising in step g the comparison of the expression of the marker gene with and without fusion inhibiting compound targeting HIV-1 gp41. […]
(§2) The IC50 index for a highly resistant virus NL-DIM ( Rimski L. T. et al. J. Virol. 1998, vol 72, pages 986-993) and for the NL4.3 virus (which is partially resistant) has been measured by reference to the DP178 inhibitor.

[2] = system: NL4.3 virus (partially resistant); assay: Susceptibility of recombinant HIV viruses to fusion inhibitors: NL4.3; format: cell-based, HIV-1
Excerpt: as §1, §2

NL4-3 reference virus = assay: Recombinant virus assay (RVA): susceptibility to reverse transcriptase inhibitors, single replication cycle, P4 indicator cells; format: cell-based, HIV-1
Method: (§3) The determination of the susceptibility of an HIV virus is performed as follows: 293 T cells are transfected with 7.5 μg of pSRT plasmid linearised with NruI, 0.1 μg of pVSV-G plasmid and 0.5 and 1 μg of product from the HIV reverse transcriptase PCR reaction. The transfection precipitate is removed from the cells after 18 hours of incubation and the fresh growth medium is added. After 24 hours of culture, the supernatant is clarified by centrifugation (500 g, 15 minutes) and transferred on P4 indicator cells which have been pre-incubated with serial dilutions of a reverse transcriptase inhibitor, in triplicate wells, for four hours. The range of inhibitor concentrations used varies according to the compounds. The signal produced by activating the marker gene was developed with CPRG for 48 hours, as for the analysis of the susceptibility to a reverse transcriptase inhibitor and the IC50 index was calculated using the median effect equation.
The pSRT plasmid comprising a deletion in the region coding for pol ranging from reverse transcriptase codon 24 (base 2618) to reverse transcriptase codon 432 (base 3872) includes all the mutations associated with a resistance phenomenon known to date. The homologous sequences of the PCR reverse transcriptase product ranging 88 base pairs upstream and 186 base pairs downstream from the deletion in pSRT. The transfections to determine the susceptibility to reverse transcriptase inhibitors are performed with a 293T cell line with a strong capacity to be transfected rather than with HeLa cells. This is not a problem since the cells are eliminated from the supernatant containing the virus by centrifugation before the transfer of P4 cells.
Given that the early phases of virus replication, including reverse transcription, take place in indicator P4 cells in this type of determination, these cells are treated with serial dilutions of reverse transcriptase inhibitors.
(§4) The inhibitor concentration ranges are selected as a function of the cellular toxicity of each compound and the IC50/IC90 ratio for the susceptibility of resistant isolates (Table 1). […] A range of four dilutions in series, starting at 200 μM, was used for abacavir, enabling the detection of up to 60 times more resistance.
For RVA reverse transcriptase, the IC50 index is used rather than the IC90 index since the detection of the IC90 index for resistant viruses could require toxic levels of compound for most reverse transcriptase inhibitors.

[3] = system: recombinant virus, specimen R5 (215Y, 41L, 74V, 100I, 103N); assay: RVA susceptibility to RTI, recombinant virus from patient specimen R5; format: cell-based, HIV-1; conditions: for susceptibility / level of resistance (in words): specimen R5; for Resistance Index (geometric mean): specimen R5, genotype 215Y, 41L, 74V, 100I, 103N, IC50 ratio to NL43, '>' = IC50 above the detectable range in all tests
Method: as §3
(§5) The reproducibility of the method to determine the susceptibility of recombinant virus (RVA) to reverse transcriptase inhibitors (RTI) was evaluated with a series of tests on 5 specimens, selected so as to represent a wide range of susceptibility profiles, between 4 and 8 tests per specimen, using RNA preparations and separate PCR reactions.
(§6) (b) The Resistance Index is the ratio of the IC50 in the specimen with reference to that of NL43 determined in parallel.

resistant virus LAI-L91H = assay: Susceptibility of recombinant HIV viruses to fusion inhibitors: LAI-L91H; format: cell-based, HIV-1; conditions: reference virus not given
Excerpt: The invention also relates to an analytical method to determine the susceptibility of an HIV virus to a fusion inhibiting compound targeting HIV-1 gp41 protein, consisting of performing the amplification in step b either with the pair of primers SEQ ID NO: 13, SEQ ID No: 14 followed by a second amplification with the pair of primers SEQ ID No: 15, SEQ ID No: 16, or with the pair of primers SEQ ID No: 17, SEQ ID No: 18 followed by a second amplification with the pair of primers SEQ ID No: 18, SEQ ID No: 16, adding said fusion inhibiting compound or not, possibly at different concentrations, during the culture of the cell host obtained in step e, before step f and comprising in step g the comparison of the expression of the marker gene with and without fusion inhibiting compound targeting HIV-1 gp41.
The recombinations obtained by performing the amplification of the step (b) with the pair of primers FuA: 5′[…]3′ (SEQ ID No: 23) et FuB: 5′ […]3′ (SEQ ID No: 24) followed by a second amplification step, performed with the primer FuC: 5′[…]3′ (SEQ ID No: 25) and a mixture of the following primers: FuD1: 5′[…]3′ (SEQ ID No: 26) FuD2: 5′[…]3′ (SEQ ID No: 27) are highly efficient. […]
The increase of the IC50index of the resistant virus LAI-L91H (Labrosse B. et al. J Virol. 2000 vol 74 pages 2142-2150) by reference to RPR103611 has been measured.

[4] = system: recombinant virus, specimen R2 (multi-compound resistance complex 62V, 75I, 77L, 116Y, 151M; 184V; 181C, 190A); assay: RVA susceptibility to RTI, recombinant virus from patient specimen R2; format: cell-based, HIV-1; conditions: specimen R2, genotype 41L, 67N, 69N, 751, 77L, 115F, 208Y, 215F, 219Q, IC50 ratio to NL43, '>' = IC50 above the detectable range in all tests
Method: as §3, §5, §6

[5] = system: 22 viruses from specimens of patients with a standard treatment; assay: RVA susceptibility to RTI, panel of 22 patient viruses compared with NL43; format: cell-based, HIV-1; conditions: for median RI (Resistance Index): median over 22 viruses, 3 RVA replicates, reference NL43
Method: as §3
To determine whether NL43 is a suitable reference virus for comparison with clinical isolates, a panel of specimens taken from patients with a standard treatment were tested on 3 RVA replicates for their susceptibility to reverse transcriptase inhibitors.

[6] = system: recombinant virus, specimen R1 (69N/T, 70R); assay: RVA susceptibility to RTI, recombinant virus from patient specimen R1; format: cell-based, HIV-1; conditions: specimen R1, genotype 69N/T, ratio of IC50 of specimen to NL43 in parallel
Method: as §3, §5, §6

[7] = system: recombinant virus, specimen R3 (184V, 215F); assay: RVA susceptibility to RTI, recombinant virus from patient specimen R3; format: cell-based, HIV-1; conditions: specimen R3, genotype 184V, 21SF; IC50 ratio to NL43; '>' = IC50 above the detectable range in all tests
Method: as §3, §5, §6

[8] = system: recombinant virus, specimen R4 (41L, 67N, 69D, 184V, 190A, H208Y, 210W, 215Y); assay: RVA susceptibility to RTI, recombinant virus from patient specimen R4; format: cell-based, HIV-1; conditions: specimen R4, genotype 41L, IC50 ratio to NL43, '>' = IC50 above the detectable range in all tests
Method: as §3, §5, §6

P4 cells = format: cell-based; conditions: cellular toxicity for P4 indicator cells
Method: as §4

[9] = Human immunodeficiency virus 1, NL43, NL4-3 reference virus, P4 cells, geometric mean of 20 repeated tests, read-out: Geometric mean IC50
[10] = Human immunodeficiency virus 1, NL43, read-out: Geometric mean IC50

Compound	IC50 (NL4-3 reference virus; [9]) [nM]	susceptibility / level of resistance (in words) [3]	Resistance Index (geometric mean) [4]	Resistance Index (geometric mean) [6]	Resistance Index (geometric mean) [7]	Resistance Index (geometric mean) [8]	Resistance Index (geometric mean) [3]	also measured
enfuvirtide								increase of IC50 index ([1]; NL-DIM by reference to LAI virus (culture adapted)): more than 100 times; increase of IC50 index ([1]; NL-DIM by reference to T5A1 virus (primary plasma virus)): more than 80 times; increase of IC50 index ([2]; NL4.3 by reference to LAI): 12,5 times; increase of IC50 index ([2]; NL4.3 by reference to T5A1 virus): 10 times
Cc1cn([C@H]2C[C@H](N=[N+]=[N-])[C@@H](CO)O2)c(=O)[nH]c1=O [AZT, zidovudine]	18	remains susceptible						
C=C(C)[C@@H]1CC[C@]2(C(=O)NCCCCCCCC(=O)N[C@@H](CC(C)C)[C@@H](O)CC(=O)O)CC[C@]3(C)[C@H](CC[C@@H]4[C@@]5(C)CC[C@H](O)C(C)(C)[C@@H]5CC[C@]43C)[C@@H]12 [RPR103611]								increase of IC50 index (resistant virus LAI-L91H): more than 100 times
Cc1cn([C@H]2C=C[C@@H](CO)O2)c(=O)[nH]c1=O [D4T, stavudine]			43.5	1.4	3.2	3.6	1.7	median RI (Resistance Index) [5]: approximately 0.92; IC50 (NL4-3 reference virus; [10]): 444 nM
Cc1ccnc2c1NC(=O)c1cccnc1N2C1CC1 [Nevirapine, nevirapine]	37	high levels of resistance	>	2.2	1.2	1.2	580.5	resistance index ([5]; one virus of the panel with mutation on codon 98 (A for S) of reverse transcriptase): 11.0
Nc1ccn([C@@H]2CS[C@H](CO)O2)c(=O)n1 [3TC, lamivudine]	1510			1.3			1.8	median RI (Resistance Index) [5]: ~1.22
O=c1[nH]cnc2c1ncn2[C@H]1CC[C@@H](CO)O1 [DDI]			26.9	1.4	3.1	3.1	2.6	IC50 (NL4-3 reference virus; NL4-3 reference virus, P4 cells, geometric mean of 20 repeated tests, read-out: Geometric mean IC50): 1610 nM
O=C1Nc2ccc(Cl)cc2[C@@](C#CC2CC2)(C(F)(F)F)O1 [Efavirenz, efavirenz]		high levels of resistance	74.9	1.0	1.0	1.0	>	IC50 (NL4-3 reference virus; [10]): 716 nM
Nc1nc(NC2CC2)c2ncn([C@H]3C=C[C@@H](CO)C3)c2n1 [Abacavir, abacavir]	2230		>	1.1	4.3	4.3	1.7	IC50 index / toxicity for P4 cells (P4 cells): approximately 250 μM
